Results reported in patent publication US8389011B2, “Pharmaceutical compositions of cholesteryl ester transfer protein inhibitors” (Bend Research, Inc., priority 2000, dated 2013).

Assay: In vitro dissolution test, microcentrifuge method, in phosphate buffered saline (PBS) pH 6.5
Format: physicochemical
Details: for AUC / Drug 2 Concentration: Table 5, PBS pH 6.5, 37° C.; for AUC: dose about 1000 μg/mL; for Drug 2 Concentration: Drug 2 dose about 1000 μg/mL
Experimental: The compositions comprising the CETP inhibitor and concentration-enhancing polymer provide enhanced concentration of the dissolved CETP inhibitor in in vitro dissolution tests. […] An appropriate PBS solution is an aqueous solution comprising 20 mM sodium phosphate (Na2HPO4), 47 mM potassium phosphate (KH2PO4), 87 mM NaCl, and 0.2 mM KCl, adjusted to pH 6.5 with NaOH. An appropriate MFD solution is the same PBS solution wherein additionally is present 7.3 mM sodium taurocholic acid and 1.4 mM of 1-palmitoyl-2-oleyl-sn-glycero-3-phosphocholine. In particular, a composition of the present invention can be dissolution-tested by adding it to MFD or PBS solution and agitating to promote dissolution.
Indeed, for some extremely insoluble CETP inhibitors, in order to identify the MDC achieved it may be necessary to use an amount of test composition such that if all of the CETP inhibitor dissolved, the CETP inhibitor concentration would be 10,000-fold or even more, that of the equilibrium concentration of the CETP inhibitor.
The MDC is taken to be the maximum value of dissolved CETP inhibitor measured over the duration of the test.
Filtration can be conducted using a 13 mm, 0.45 μm polyvinylidine difluoride syringe filter sold by Scientific Resources under the trademark TITAN®. Centrifugation is typically carried out in a polypropylene microcentrifuge tube by centrifuging at 13,000 G for 60 seconds. Other similar filtration or centrifugation methods can be employed and useful results obtained.
The spray-dried dispersions of Examples 6 and 7 were evaluated in an in vitro dissolution test using a microcentrifuge method. In this test, the spray-dried dispersion was added to a microcentrifuge tube for a Drug 2 dose of about 1000 μg/mL (7.2 mg for Example 6, 18 mg for Example 7). The tube was placed in a 37° C. sonicating bath, and 1.8 mL phosphate buffered saline (PBS) at pH 6.5 and 290 mOsm/kg was added. The samples were quickly mixed using a vortex mixer for about 60 seconds. The samples were centrifuged at 13,000 G at 37° C. for 1 minute. The resulting supernatant solution was then sampled and diluted 1:6 (by volume) with methanol and then analyzed by high-performance liquid chromatography (HPLC). The contents of the tubes were mixed on the vortex mixer and allowed to stand undisturbed at 37° C. until the next sample was taken. Samples were collected at 4, 10, 20, 40, 90, and 1200 minutes.
For Control 2, an in vitro dissolution test was performed using the procedures described above except that 1.8 mg of crystalline Drug 2 was used.
In this method, 7.2 mg of each spray-dried dispersion was added to a 2-mL microcentrifuge tube. The tube was placed in a 37° C. sonicating bath, and 1.8 mL of a phosphate-buffered saline (PBS) solution at pH 6.5 and 290 mOsm/kg was added, resulting in a TCmax of 400 μg/mL. The samples were quickly mixed using a combination of vortex mixer and sonication for about 90 seconds. The samples were centrifuged at 13,000 G at 37° C. for 1 minute. The resulting supernatant solution was then sampled and diluted 1:6 (by volume) with methanol and then analyzed by HPLC. The tubes were then mixed on the vortex mixer and allowed to stand undisturbed at 37° C. until the next sample. Samples were collected at 4, 10, 20, 40, 90 and 1200 minutes.
For Control 5, an in vitro dissolution test was performed using the procedure described above, except that 0.72 mg of non-crystalline Drug 3 was placed in a microcentrifuge tube and mixed with 1.8 mL of PBS.
In this method, 15 mg of each SDD was added to a 2-mL microcentrifuge tube. The tube was placed in a 37° C. sonicating bath, and 1.5 mL of a phosphate-buffered saline (PBS) solution at pH 6.5 and 290 mOsm/kg) was added, resulting in a TCmax of 1000 μg/mL. The samples were quickly mixed using a combination of vortex mixer and sonication for about 90 seconds.

[1] = Table 25: Drug 2, PBS, melt-congeal poloxamer dispersions
[2] = Table 28: Drug 2, PBS, spray-dried poloxamer dispersions
[3] = Table 37: Drug 2, PBS, CMEC dispersions

CCOC(=O)N1c2ccc(C(F)(F)F)cc2[C@@H](N(Cc2cc(C(F)(F)F)cc(C(F)(F)F)c2)C(=O)OC)C[C@H]1CC [Control 2, [2R,4S]4-[(3,5-bis-trifluoromethyl-benzyl)-methoxycarbonyl-amino]-2-ethyl-6-trifluoromethyl-3,4-dihydro-2H-quinoline-1-carboxylic acid ethyl ester]
actual Cmax,90 for Drug 2 in Control 2 (believed) (PBS, inferred from the accurately measured solubility of crystalline Drug 2): about 0.01 μg/ml | AUC (Drug 2, to 0 min): 0 min-μg/mL | AUC (Drug 2, to 4 min): <2 min-μg/mL | AUC (Drug 2, to 10 min): <8 min-μg/mL | AUC (Drug 2, to 20 min): <18 min-μg/mL | AUC (Drug 2, to 40 min): <38 min-μg/mL | AUC (Drug 2, to 90 min): <88 min-μg/mL | AUC (Drug 2, to 1200 min): <1,200 min-μg/mL | Drug 2 Concentration (0 min): 0 µg/mL | Drug 2 Concentration (4 min): <1 µg/mL | Drug 2 Concentration (10 min): <1 µg/mL | Drug 2 Concentration (20 min): <1 µg/mL | Drug 2 Concentration (40 min): <1 µg/mL | Drug 2 Concentration (90 min): <1 µg/mL | Drug 2 Concentration (1200 min): <1 µg/mL | AUC90 (Table 6, area under the aqueous concentration versus time curve after 90 minutes, Drug 2, PBS, TCmax about 1000 μg/mL): <88 min-μg/mL | C1200 (Table 6, concentration of Drug 2 at 1200 minutes, PBS, TCmax about 1000 μg/mL): <1 µg/mL | Cmax, 90 (Table 6, maximum concentration of Drug 2 in solution during the first 90 minutes, PBS, TCmax about 1000 μg/mL): <1000 ng/mL | AUC90 [1]: < 1470 ng·h/mL | Cmax, 90 [1]: <1000 ng/mL | AUC90 [2]: <88 min-μg/mL | Cmax, 90 [2]: <1000 ng/mL | AUC90 [3]: <88 min-μg/mL | Cmax, 90 [3]: <1000 ng/mL | AUC90 (Table 41: Drug 2, PBS): <88 min-μg/mL | Cmax, 90 (Table 41: Drug 2, PBS): <1000 ng/mL | AUC90 (Table 44: Drug 2, PBS): <88 min-μg/mL | Cmax, 90 (Table 44: Drug 2, PBS): <1000 ng/mL
